The source made the active and inactive calls. The rule behind the calls is not given here.

Experiment [1] has as its system HeLa. Put plainly: Growth inhibition of human HeLa cells at 33 uM. Format: functional. The conditions noted are these: read-out: GI.
The test system of experiment [2] is HeLa. Put plainly: Cytotoxic activity against human HeLa cells at 1.25 to 10 uM by cytological profiling assay. Format: functional, cell-based.
Experiment [3] has as its system HeLa. Put plainly: Cytotoxic activity against human HeLa cells. Format: functional, cell-based.
Experiment [4] concerns HeLa. Kind of experiment: Cytotoxic activity against human HeLa cells at 0.295 uM by cytological profiling assay. In kind it is functional, cell-based.
For experiment [5], the system named is HeLa. Kind of experiment: Cytotoxic activity against human HeLa cells at 1.47 uM by cytological profiling assay. In kind it is functional, cell-based.
Experiment [6] has as its system HeLa. Put plainly: Cytotoxic activity against human HeLa cells at 0.382 uM by cytological profiling assay. Format: functional, cell-based.
The subject of experiment [7] is HeLa. Put plainly: Cytotoxic activity against human HeLa cells at 1.91 uM by cytological profiling assay. Format: functional, cell-based.

Consider `CCC(C)C(=O)O[C@H]1C[C@H]2[C@@H](C[C@H]1C)C1=C(OC2(C)C)C(=O)c2c(cc(O)c3c2O[C@@H]2[C@@H](O)OC[C@]32C)C1=O` (some centres undefined), for which, in the experiment on HeLa [1], the inhibition of growth at 33 µM came to 25%.

Regarding `CO[C@@H](C)[C@H]1C[C@H](C)[C@H]([C@@H](C)/C=C/[C@@H]2CC[C@@H](C)[C@H](/C(=C/[C@H]3CCC[C@@H](C)[C@@H]3[C@H](C)C(=O)C3=C(O)COC3=O)CO)O2)O1` [TETRONASIN 5930], in the experiment with HeLa [2], the result was Active. The IC50 with HeLa [3] was 230 nM.

With `CC(C)C(=O)O[C@H]1C[C@H]2[C@@H](C[C@H]1C)C1=C(OC2(C)C)C(=O)c2c(cc(O)c3c2O[C@@H]2[C@@H](O)OC[C@]32C)C1=O`, the inhibition of growth at 33 µM in the experiment with HeLa [1] was found to be 32%.

On to `C=CC(C)(CO)c1c(O)cc2c(c1O)C(=O)C1=C(C2=O)[C@@H]2C[C@@H](C)[C@@H](OC(=O)C(C)C)C[C@@H]2C(C)(C)O1` (some centres undefined), for which the inhibition of growth at 33 µM in the experiment with HeLa [1] was determined as 19%.

As to `C[C@H](CCC(=O)O)C[C@H](C)C[C@H](C)C(=O)/C=C(\O)[C@H](C)C[C@H](C)C/C=C/[C@@H](C)[C@@H](O)[C@@H](C)[C@@H](O)C[C@@H]1CC[C@@](C)([C@H]2CC[C@@](C)([C@@H](C)O)O2)O1`, the result with HeLa [4] and with HeLa [5] was Active.

With `CNc1ccc2oc(C[C@H]3O[C@@]4(CC[C@H]3C)O[C@H]([C@H](C)C(=O)c3ccc[nH]3)[C@H](C)C[C@H]4C)nc2c1C(=O)O`, the result with HeLa [6] and in the experiment on HeLa [7] was Active.

The values are drawn from ChEMBL document CHEMBL4033609, “Naphthablins B and C, Meroterpenoids Identified from the Marine Sediment-Derived Streptomyces sp. CP26-58 Using HeLa Cell-Based Cytological Profiling” (J Nat Prod, 2017).
